Each block holds one compound with its values, some of them ahead of it.
Experiments:
[1] = test system: NIH 3T3 cell transfectants; assay: Colony formation in soft agar (anchorage-independent growth); type: cell-based, murine
Protocol: Clonal populations of NIH 3T3 cells stably transfected with vector control, soluble Jagged1 (sJ1), constitutively active Notch1 (caN1), constitutively active Notch 2 (caN2), dominant negative Notch 1 (dnN1), dominant negative Notch 2 (dnN2), an oncogenic mutant of FGF1 engineered with the FGF4 signal peptide sequence (hst-β (FGF4):FGF1), or constitutively active oncogenic Ras construct (caRas), were plated on 6 cm tissue culture dishes with 0.5% agar in an overlay containing DMEM (Gibco BRL) media, 10% bovine calf serum (BCS; Hyclone), and 0.33% agar at 1.5×10^3 cells/dish. As indicated, some dishes were also treated with 1 μM of the FGFR1-specific inhibitor, PD166866 (Panek et al., 1998, J. Pharmacol. Exp. Ther. 286: 569-577) and/or 10 ng/ml recombinant human FGF1 and 10 U/ml heparin (Sigma). Cells were fed with 0.5 ml of media with or without FGF1 and/or the FGFR1-specific inhibitor every 3 days as indicated. Twenty days after plating, colonies were stained with p-iodonitrotetrazolium violet (Sigma) for visualization. Quantitation of colony formation was achieved by counting all p-iodonitrotetrazolium violet-stained colonies consisting of more than 4 cells under a Zeiss Stemi SVII Apo dissecting microscope.
Anchorage-Dependent and -Independent Cell Growth Assays. Approximately 3×10^4 cells were plated on fibronectin (10 μg/cm^2)-coated in 12-well cell culture dishes (Falcon) in DMEM containing 10% BCS (v/v) (Hyclone). Three wells of the individual NIH 3T3 cell transfectants were harvested every third day and cell number was quantitated using a hemocytometer. Anchorage-independent cell growth was evaluated by plating in duplicate approximately 1.7×10^3 cells in DMEM containing 0.5% (w/v) agar (Sigma) 10% (v/v) BCS into 5 cm plastic dishes (Falcon) as previously described (Small et al., 2003, J. Biol. Chem. 278:16405-16413).

[2] = test system: NIH 3T3 stable transfectants; assay: FGF1-induced spheroid formation; type: cell-based, murine
Protocol: Clonal populations of NIH 3T3 stable transfectants were resuspended and grown in media containing 10% BCS, 10% BCS containing 1 μM PD166866, 10% BCS containing 10 ng/ml recombinant human FGF1 and 10 U/ml heparin or 10% BCS containing 10 ng/ml recombinant human FGF 1, 10 U/ml heparin and 1 μM PD 166866 as indicated in the figure legend. Approximately 2×10^5 cells were plated per well (6-well dish) and three days after plating, phase-contrast micrographs of the cells were taken.

[3] = test system: caN1/CSL-activated transcription; assay: Transient transfection assay of CSL-regulated transcription (Example 1); type: cell-based, murine; settings: exogenous FGF1 1-10 ng/ml; caN1 transfectants
Protocol: NIH 3T3 cells were plated onto fibronectin-coated (10 μg/cm2) 12-well tissue culture dishes and transiently transfected at approximately 80% confluency with 500 ng of a Luciferase construct activated by 4 tandem copies of the CSL (CBF1) response element (Hsieh et al. 1996, Mol. Cell. Biol. 16: 952-959), 100 ng of the TK Renilla (Promega) construct as an internal control for transfection efficiency, and 500 ng of either vector control, sJ1 or caN1 constructs using Fugene 6 (Roche) per manufacturer's instructions. For analysis of caN1 activity in the background of NIH 3T3 stable lines, vector control, caN1, sJ1 and hst-β(FGF4):FGF1 stable transfectants were plated onto fibronectin-coated (10 μg/cm2) 12-well tissue culture dishes and transiently transfected with 500 ng of the CSL-Luciferase construct, 100 ng of the TK Renilla (Promega) construct as an internal control for transfection efficiency, and 200 ng of caN1. […] The cells were harvested 48 hours after the media change and Luciferase/Renilla activity was measured using Promega's Dual-Luciferase Reporter Assay System. The efficiency of transcription was measured and normalized in relationship to the activity of pRL-TK Renilla and the activity is reported as the ratio of Luciferase/Renilla activity. […]

Jagged1 = Jagged1 expression by immunoblot; type: cell-based, murine; settings: 10 ng/ml FGF1 and 10 U/ml heparin in growth media
Protocol: Vector control, SJ1, CaN1, J1, Hstβ(FGF4):FGF1 and sJ1:caN1 stable NIH 3T3 cell transfectants were plated on tissue culture dishes in either normal growth media (DMEM (Gibco BRL) media, 10% bovine calf serum (BCS; Hyclone)) or normal growth media containing 10 ng/ml recombinant FGF1 and 10 U/mi heparin. Cells were harvested at confluency (based on status of vector control cells grown in normal growth media).
Because hst-β(FGF4):FGF1 stable transfectants and the sJ1 transfectants grown in FGF 1-containing media form spheroids, all cells were harvested by scraping in the presence of the growth media dn then the cells/growth media was collected into sterile 15 ml conical tubes. Cells were pelleted by centrifugation at 800×g for 5′ at 4° C. After centrifugation, the supernatant was removed and the cell pellets were washed 3× with 1×PBS. Cells were lysed in 500 μl in 20 mM tris, pH 7.5 containing 300 mM sucrose, 60 mM KCl, 15 mM NaCl, 0.5 mM EDTA, 0.5% (v/v) Triton X-100 1 mM Phenymethyl sulfonyl flouride, 0.1% SDS, 2 μg/ml aprotinin, […], 10 μg/ml leupeptin, and 1 mM sodium orthovanadate for 15 minutes on ice. Cell lysates were pelleted and the supernatant containing soluble proteins removed.
Samples were normalized to protein concentration using the BCA Protein Assay Kit (Pierce). […]

[4] = test system: CSL1-dependent transcription; assay: Dual luciferase reporter assay of CSL1-dependent transcription (Example 2); type: cell-based, murine
Protocol: Insert-less vector control and sJ1 NIH 3T3 cell transfectants (approximately 3×10^4) were plated on fibronectin-coated (10 μg/cm^2) cell culture dishes and the cells were transiently transfected at approximately 50% confluency with 500 ng of a luciferase construct containing four tandem copies of the CBF1 response element (Small et al., 2001, J. Biol. Chem. 276:32022-32030).
Cotransfection with 100 ng of the TK Renilla (Promega) construct was used as an internal control for transfection efficiency using Fugene 6 (Roche), according to the manufacturer's instructions. Cells were treated with or without 10, […] hours after transfection, harvested 48 hours after the transfection and luciferase/renilla activity measured using the Dual Luciferase Reporter Assay System (Promega). Each experiment was performed in triplicate.

FGFR1 (mouse) = FGFR1 (mouse) (UniProt P16092); assay: cell-based or functional assay
FGFR1 (mouse), sequence (P16092 22-822): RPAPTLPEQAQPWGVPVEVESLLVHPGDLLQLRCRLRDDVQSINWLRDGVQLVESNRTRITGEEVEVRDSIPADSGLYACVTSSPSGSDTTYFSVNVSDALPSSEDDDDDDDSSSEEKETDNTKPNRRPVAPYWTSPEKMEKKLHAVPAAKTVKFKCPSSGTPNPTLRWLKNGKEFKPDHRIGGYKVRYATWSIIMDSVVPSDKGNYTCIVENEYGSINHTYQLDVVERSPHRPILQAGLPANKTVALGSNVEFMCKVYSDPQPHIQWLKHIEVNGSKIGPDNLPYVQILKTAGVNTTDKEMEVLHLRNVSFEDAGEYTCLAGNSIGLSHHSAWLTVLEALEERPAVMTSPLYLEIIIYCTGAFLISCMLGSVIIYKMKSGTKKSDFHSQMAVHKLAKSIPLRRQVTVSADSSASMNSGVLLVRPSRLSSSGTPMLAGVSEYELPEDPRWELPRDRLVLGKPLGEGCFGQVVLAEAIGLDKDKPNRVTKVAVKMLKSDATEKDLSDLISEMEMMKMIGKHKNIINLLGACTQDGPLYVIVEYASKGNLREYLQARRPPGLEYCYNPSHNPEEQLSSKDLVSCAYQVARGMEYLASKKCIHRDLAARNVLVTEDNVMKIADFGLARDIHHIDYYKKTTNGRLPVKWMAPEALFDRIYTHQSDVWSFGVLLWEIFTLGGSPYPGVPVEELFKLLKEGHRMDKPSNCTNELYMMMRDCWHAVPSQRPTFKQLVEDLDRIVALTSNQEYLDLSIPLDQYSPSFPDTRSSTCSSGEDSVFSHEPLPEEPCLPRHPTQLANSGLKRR

Notch receptor = assay: cell-based or functional assay
[5] = test system: full-length human Jagged1, in vitro translation product
[6] = test system: in vitro translation product of the Delta1 transcript
[7] = target: full-length human Jagged1 on NIH 3T3 cell transfectants (human) (UniProt P78504); assay: cell-based or functional assay
full-length human Jagged1 on NIH 3T3 cell transfectants (human), sequence (P78504 34-1218 A1171G limits assumed): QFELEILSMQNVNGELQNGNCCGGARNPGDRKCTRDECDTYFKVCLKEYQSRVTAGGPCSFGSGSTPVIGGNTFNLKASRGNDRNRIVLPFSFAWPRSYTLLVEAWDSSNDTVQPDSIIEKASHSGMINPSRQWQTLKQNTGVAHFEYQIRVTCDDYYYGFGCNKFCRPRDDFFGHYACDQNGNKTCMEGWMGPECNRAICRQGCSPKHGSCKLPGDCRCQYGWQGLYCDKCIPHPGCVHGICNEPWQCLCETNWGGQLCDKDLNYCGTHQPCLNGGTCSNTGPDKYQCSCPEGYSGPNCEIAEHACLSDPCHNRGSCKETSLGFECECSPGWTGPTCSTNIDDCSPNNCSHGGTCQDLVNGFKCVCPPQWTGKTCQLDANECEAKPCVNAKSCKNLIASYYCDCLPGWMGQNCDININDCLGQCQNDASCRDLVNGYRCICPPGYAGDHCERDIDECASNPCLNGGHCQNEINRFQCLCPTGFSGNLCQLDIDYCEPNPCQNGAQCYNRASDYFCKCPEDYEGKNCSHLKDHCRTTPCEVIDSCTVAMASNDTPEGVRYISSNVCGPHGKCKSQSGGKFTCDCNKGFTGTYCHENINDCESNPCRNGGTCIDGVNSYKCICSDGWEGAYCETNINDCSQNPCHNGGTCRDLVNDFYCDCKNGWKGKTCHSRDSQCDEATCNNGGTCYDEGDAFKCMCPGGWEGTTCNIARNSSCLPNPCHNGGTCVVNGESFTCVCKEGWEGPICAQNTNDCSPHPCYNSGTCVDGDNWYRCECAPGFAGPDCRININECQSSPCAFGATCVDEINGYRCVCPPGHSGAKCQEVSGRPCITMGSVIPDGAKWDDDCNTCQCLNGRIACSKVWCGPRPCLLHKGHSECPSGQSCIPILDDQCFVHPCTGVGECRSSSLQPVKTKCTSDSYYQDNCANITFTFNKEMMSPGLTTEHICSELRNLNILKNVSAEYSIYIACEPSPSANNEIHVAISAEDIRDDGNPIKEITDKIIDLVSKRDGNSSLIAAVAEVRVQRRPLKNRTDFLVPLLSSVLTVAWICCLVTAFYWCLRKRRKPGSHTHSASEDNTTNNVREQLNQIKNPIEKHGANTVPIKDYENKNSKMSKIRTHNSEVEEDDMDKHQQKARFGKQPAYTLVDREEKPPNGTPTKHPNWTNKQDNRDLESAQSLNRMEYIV

CSL1-dependent transcription, level relative to control ([4]; thrombin on full-length Jagged1 NIH 3T3 transfectants, sJ1 expression, 10 ng/ml exogenous FGF1): approximately 25 % of the control level
Compound: FGF1: recombinant human FGF1 (acidic FGF)
effect on colonies formed by sJ1 and dnN1 transfectants ([1]; 10 ng/ml FGF1 in growth media): greatly exaggerated the size of the colonies
effect on caN1/CSL transcription [3]: repressed caN1/CSL transcription in a dose-dependent fashion
spheroid formation in Notch-repressed (sJ1, dnN1) NIH 3T3 cells ([2]; 10 ng/ml recombinant FGF1 and 10 U/ml heparin): formed multicellular, spheroid-like structures
effect on Jagged1 expression (Jagged1): increased Jagged1 expression in all stable lines examined

DNA synthesis ((3H)-thymidine-labelled nuclei) in Swiss 3T3 cells expressing dnFGFR1 (FGFR1 (mouse)): 70 % reduction
Compound: recombinant FGF1 (from UniProt P05230 16-155) (ligand)

CSL1-dependent transcription (dual luciferase reporter) in full-length Jagged1 NIH 3T3 cell transfectants (% of the control level) [7]: 75
Compound: α-thrombin (enzyme)

Further lines, the compound ahead of its results:

Compound: COc1cc(OC)cc(-c2cc3cnc(N)nc3nc2NC(=O)NC(C)(C)C)c1 [PD166866]
effect on anchorage-independent growth of sDl1 NIH 3T3 cell transfectants [1]: completely inhibited
effect on colony formation in caRas cells ([1]; 1 μM): had no effect on colony formation in the caRas cells
effect on colony growth of sJ1 and dnN1 in the absence of FGF1 ([1]; 1 μM): inhibited small colony growth
effect on FGF1-mediated colony formation ([1]; 1 μM, sJ1, dnN1 and hst-β(FGF4):FGF1 transfectants): substantially reduced FGF1-mediated colony formation
effect on FGF1-induced spheroid formation ([2]; 1 μM PD166866, sJ1, dnN1 and hst-β(FGF4):FGF1 transfectants): completely abolished FGF1-induced spheroid formation

Compound: heparin [reference compound]
effect of heparin on thrombin-dependent repression of CSL1-dependent transcription ([4]; heparin 5 units/ml with thrombin 10 μg/ml, full-length Jagged1 NIH 3T3 transfectants): able to potentiate the thrombin-dependent repression of CSL1-dependent transcription
effect of heparin on CSL1-dependent transcription ([4]; heparin by itself or with 10 μM TRAP): ineffective in altering CSL1-dependent transcription

Compound: soluble Jagged1 (sJ1) (from UniProt P78504 34-1067) (ligand)
CSL1-dependent transcription (dual luciferase reporter) (% of the control level) (Notch receptor): 25

Compound: α-thrombin
proteolytic cleavage of in vitro translated (35S)-labelled Jagged1, SDS-PAGE and autoradiography [5]: cleavage of the full-length Jagged1 protein into 39 kDa and 95 kDa fragments
proteolytic cleavage of the in vitro translation product [6]: thrombin was unable to proteolytically modify the in vitro translation product of the Delta1 transcript
